Experimental data taken from patent publication US20220241416A1, “METHODS FOR THE IDENTIFICATION OF SARM1 NADASE ACTIVITY INHIBITORS AND USES THEREOF” (Bar Ilan University, priority 2021, published 2022).
“Also recorded” adds a separate entry of the source. Like-named read-outs stand apart in the source and are kept apart here.

Legend:
[1] = target: T1, hSARM1 (Homo sapiens, UniProt Q6SZW1); test: Kinetic parameters of hSARM1, substrate inhibition fit; format: biochemical
T1 construct: hSARM1w.t; (26ERL . . . GPT724) that was not mutated in E642, was also expressed and isolated; 6xHis (N); TEV cleavage site (N); made in house; host or cells: HEK293F suspension cells
T1 sequence (Q6SZW1 with tags, fused parts or gaps): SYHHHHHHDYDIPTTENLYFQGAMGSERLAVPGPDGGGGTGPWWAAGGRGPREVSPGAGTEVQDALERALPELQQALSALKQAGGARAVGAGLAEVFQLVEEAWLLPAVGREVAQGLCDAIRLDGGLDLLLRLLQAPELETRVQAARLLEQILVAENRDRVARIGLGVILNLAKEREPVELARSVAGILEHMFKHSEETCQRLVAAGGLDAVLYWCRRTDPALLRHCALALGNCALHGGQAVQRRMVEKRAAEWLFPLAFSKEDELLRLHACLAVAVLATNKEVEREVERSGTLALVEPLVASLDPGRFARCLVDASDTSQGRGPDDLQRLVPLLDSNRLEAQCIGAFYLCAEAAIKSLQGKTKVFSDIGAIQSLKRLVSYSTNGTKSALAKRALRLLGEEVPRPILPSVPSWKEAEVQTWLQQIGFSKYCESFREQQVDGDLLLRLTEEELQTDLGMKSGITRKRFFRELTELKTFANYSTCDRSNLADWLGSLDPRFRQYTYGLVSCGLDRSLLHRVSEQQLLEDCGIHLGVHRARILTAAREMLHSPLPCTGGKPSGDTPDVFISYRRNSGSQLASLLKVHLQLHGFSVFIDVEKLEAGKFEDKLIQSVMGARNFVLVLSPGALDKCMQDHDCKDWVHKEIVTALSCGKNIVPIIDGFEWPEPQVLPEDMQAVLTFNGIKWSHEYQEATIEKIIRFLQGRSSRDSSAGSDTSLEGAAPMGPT
Procedure: FIG. 14C. […] The kinetic parameters were determined from plots of reaction velocity of NAD+ consumption versus substrate (NAD+) concentration and then fitted to the Michaelis-Menten equation (Km and Vmax) or substrate inhibition equation (Ki) using non-linear curve fit in GraphPad Prism. Kcat was calculated by dividing the Vmax with protein molar concentration.
For Vmax and Km determination, the NADase activity assay was performed with several different NAD+ substrate concentrations and sampled in constant time points. For each NAD+ concentration, linear increase zone was taken for slope (V0) calculation. All data were than fitted to the Michaelis-Menten equation using non-linear curve fit in GraphPad Prism software. Kcat was calculated by dividing the Vmax with protein molar concentration.

[2] = target: T1, hSARM1; test: HPLC analysis of time dependent NAD+ consumption by hSARM1; format: biochemical; conditions: 2 mM NAD+ versus 50 μM; porcine brain NADase control not inhibited
Procedure: Purified hSARM1w.t. was first diluted to 800 nM in 25 mM HEPES pH 7.5, 150 mM NaCl, and then mixed in 37° C. with different concentrations of NAD+(in the same buffer) in a 1:1 v/v ratio and incubated for 0, 5 and 30 min. 1:100 (v/v). BSA (NEB Inc. 20 mg/ml) was included, and reactions were stopped by heating at 95° C. for 2 minutes. Where specified, NMN (Sigma-Aldrich-N3501) was added in different concentrations. For control, NAD+ consumption was compared to a commercially available porcine brain NADase 0.025 units/ml (Sigma-Aldrich-N9879).
HPLC measurements were performed using a Merck Hitachi Elite LaChrom HPLC system equipped with an autosampler, UV detector and quaternary pump. HPLC traces were monitored at 260 nm and integrated using EZChrom Elite software. 10 μL of each sample were injected onto a Waters Spherisorb ODS1 C18 RP HPLC Column (5 μm particle size, 4.6 mm×150 mm ID). HPLC solvents are: A: 100% methanol; B: 120 mM sodium phosphate pH 6.0; C double-distilled water (DDW). The column was pre-equilibrated with B:C mixture ratio of 80:20. Chromatography was performed at room temperature with a flow rate of 1.5 ml/min. Each analysis cycle was 12 min long as follows (A:B:C, v/v): fixed 0:80:20 0-4 min; gradient to 20:80:0 4-6 min; fixed 20:80:0 from 6-9 min. gradient to 0:80:20 from 9-10 min; fixed 0:80:20 from 10-12 min. The NAD+ hydrolysis product ADPR was eluted at the isocratic stage of the chromatography while NAD+ elutes in the methanol gradient stage.

NC(=O)c1ccc[n+]([C@@H]2O[C@H](COP(=O)([O-])OP(=O)(O)OC[C@H]3O[C@@H](n4cnc5c(N)ncnc54)[C@H](O)[C@@H]3O)[C@@H](O)[C@H]2O)c1 [NAD+, Nicotinamide adenine dinucleotide] was tested, and the Ki ([1]; apparent inhibition by substrate, read-out: Ki for NAD+, hSARM1) was 727 µM, the Ki ([1]; substrate inhibition equation, read-out: Ki, inhibition by the substrate NAD+, hSARM1) was 700 µM and the “substrate inhibition of hSARM1 NAD+ hydrolysis” value [2] was “clearly inhibited; also recorded: tightly inhibited”.
